Measurements reported in patent publication US10195170B2, “Methods for inhibiting expression of ASC, expression of NLRP3, and/or formation of NLRP3 inflammasome complex using diacerein or its analogs” (TWi Biotechnology, Inc., priority 2015, dated 2019).

Tests used:
[1] = tested on: ASC; assay: Immunofluorescence staining (fluorescence confocal assay) of ASC in MSU-stimulated THP-1 cells; assay type: cell-based, human; details: PMA-primed THP-1 cells, then 100 μg/mL MSU for 6 hours
Method: (§1) The 20 mg of rhein powder was dissolved in 1 mL 100% dimethyl sulfoxide (DMSO), sterilized by 0.22 μm pore filter membranes, and stored at −20° C. before use. The monosodium urate (MSU) crystal (10 mg/mL) was prepared in sterilized phosphate buffered saline (PBS). The adenosine […] disodium salt (ATP) was dissolved in ddH2O and sterilized by 0.22 μm pore filter membranes. THP-1, human acute monocytic leukemia cell line (ATCC® TIB-202), were suspended in RPMI-1640 medium (GIBCO, Life Technologies, Grand Island, USA) supplemented with 10% fetal bovine serum and 1% of antibiotics (penicillin-streptomycin-amphotericin B) conditioned media. For macrophage-like differentiation, THP-1 cells were primed by 0.1 μM phorbol myristyl acetate (PMA) for 24 hours. […] For cell viability, PMA-primed THP-1 cells were detected in the presence or absence of rhein incubation for 24 hours by the Cell Counting Kit-8 (CCK-8 assay, Sigma-Aldrich, St Louis, USA). […] Fluorescence confocal assay was performed to detect the human ASC and NLRP3 expression in paraformaldehyde-fixed THP-1 cells after treatment. […] The stained areas of ASC (green) and NLRP3 (red) staining distributions were quantified and analyzed by Metamorph analyzer. […] P-value was determined by the two-tailed unpaired t-test.

[2] = tested on: NLRP3; assay: Immunofluorescence staining (fluorescence confocal assay) of NLRP3 in MSU-stimulated THP-1 cells; assay type: cell-based, human; details: PMA-primed THP-1 cells, then 100 μg/mL MSU for 6 hours
Method: as §1

**Q.** Which “decrease of staining of ASC sections, average intensity of area/cell” value ([1]; rhein 5 μg/mL overnight (lower dose), P=0.0011) does the source give for `O=C(O)c1cc(O)c2c(c1)C(=O)c1cccc(O)c1C2=O` [rhein, 9, 10-dihydro-4,5-dihydroxy-9, 10-dioxo-2-anthracene carboxylic acid] here?
**A.** about 64.0%

**Q.** And the “decrease of staining of ASC sections, average intensity of area/cell” value ([1]; rhein 10 μg/mL overnight (higher dose), P=0.0022)?
**A.** ~79.0%

**Q.** What about the “inhibition of NLRP3 levels, average intensity of area/cell” value ([2]; rhein 5 μg/mL overnight (lower dose), P=0.014) of the same compound?
**A.** about 62.5%

**Q.** And the “inhibition of NLRP3 levels, average intensity of area/cell” value ([2]; rhein 10 μg/mL overnight (higher dose), P=0.0012)?
**A.** ~84.1%
